Five compounds from ChEMBL document CHEMBL5236667, “Synthesis of pyrrolo[3,2-d]pyrimidineone derivatives as novel FXa inhibitors” (Bioorg Med Chem Lett, 2023) can be followed below.

For assay [1], the species on record is Oryctolagus cuniculus. Nature of the assay: Anticoagulant activity in rabbit plasma assessed as T/C ratio of prothrombin time (reference value: 1). Format: functional.
In assay [2] the target is T1, Coagulation factor X (Homo sapiens, UniProt P00742). Description: Inhibition of factor Xa (unknown origin) assessed as residual enzymatic activity at 20 nM.
Assay [3] has as its target T1, Coagulation factor X. Description: Inhibition of factor Xa (unknown origin).
Assay [4] has as its target T1, Coagulation factor X. Nature of the assay: Potency index, ratio of rivaroxaban IC50 to test compound IC50 for inhibition of factor Xa (unknown origin).
Assay [5] is filed under the species Oryctolagus cuniculus. Description: Anticoagulant activity in rabbit plasma assessed as increase in prothrombin time at 20 to 62500 nM. The note with it: dose 20-62500 nM. Format: functional.
Assay [6] deals with Rattus norvegicus. Description: Antithrombotic activity in […]-induced venous thrombosis rat model assessed as reduction in thrombus weight at 1 mg/kg (reference value: 7.79 +/- 1.62 mg). It counts as functional.
Assay [7] deals with Rattus norvegicus. Nature of the assay: Antithrombotic activity in […]-induced venous thrombosis rat model assessed as thrombus inhibition rate at 1 mg/kg relative to control. It counts as functional.
Assay [8] concerns Rattus norvegicus. Nature of the assay: Antithrombotic activity in FlC3-induced venous thrombosis rat model assessed as reduction in thrombus weight at 1 mg/kg (reference value: 9.7 +/- 1.62 mg). It counts as functional.
Assay [9] relates to Rattus norvegicus. Nature of the assay: Antithrombotic activity in […]-induced venous thrombosis rat model assessed as reduction in thrombus weight at 0.5 mg/kg (reference value: 9.7 +/- 1.62 mg). It counts as functional.
The subject of assay [10] is Rattus norvegicus. Description: Antithrombotic activity in […]-induced venous thrombosis rat model assessed as reduction in thrombus weight at 2 mg/kg (reference value: 9.7 +/- 1.62 mg). Format: functional.
Assay [11] deals with Rattus norvegicus. Nature of the assay: Antithrombotic activity in […]-induced venous thrombosis rat model assessed as thrombus inhibition rate at 0.5 mg/kg relative to control. Format: functional.
For assay [12], the system named is Rattus norvegicus. Description: Antithrombotic activity in […]-induced venous thrombosis rat model assessed as thrombus inhibition rate at 2 mg/kg relative to control. Format: functional.

The source made the active and inactive calls. No cut-off for these calls is given here.

T1 sequence (P00742 41-179 limits assumed): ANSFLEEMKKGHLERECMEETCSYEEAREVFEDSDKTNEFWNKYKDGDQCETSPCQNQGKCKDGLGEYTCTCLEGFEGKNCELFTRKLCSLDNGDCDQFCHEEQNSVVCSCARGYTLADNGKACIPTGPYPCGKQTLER
T1 sequence (P00742 235-488 limits assumed): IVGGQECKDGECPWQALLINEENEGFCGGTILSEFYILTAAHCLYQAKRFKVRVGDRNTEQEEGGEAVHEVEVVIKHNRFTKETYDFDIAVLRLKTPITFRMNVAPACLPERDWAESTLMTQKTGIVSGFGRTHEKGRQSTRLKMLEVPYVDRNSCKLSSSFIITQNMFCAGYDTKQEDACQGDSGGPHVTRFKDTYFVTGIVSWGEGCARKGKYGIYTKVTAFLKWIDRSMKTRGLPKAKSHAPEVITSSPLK

Broadly, the IC50 is the point on the concentration scale where inhibition reaches its midpoint. As usually defined, the inhibition in vivo is the percentage by which the read-out fell short of the control. Take `COc1ccc(-n2cc(C(N)=O)c3ncn(-c4ccc(N5CCOCC5=O)cc4)c(=O)c32)cc1`: the T/C in the assay listed under Oryctolagus cuniculus [1] came out at 1.99. Further, the Activity stood at 46.7% at Coagulation factor X [2]; 2.73 mg in the assay with Rattus norvegicus [6]; 3.05 mg with Rattus norvegicus [8]; 5.36 mg in the assay with Rattus norvegicus [9]; 2.6 mg in the assay with Rattus norvegicus [10]. At Coagulation factor X [3], this compound gave an IC50 of 1.57 nM. Further, at Coagulation factor X [4], the Ratio IC50 was 9. Also, the outcome in the assay listed under Oryctolagus cuniculus [5] was Active. Also, the inhibition in vivo at 1 mg/kg with Rattus norvegicus [7] came out at 65%. The inhibition in vivo at 0.5 mg/kg in the assay with Rattus norvegicus [11] is 45%. In addition, the inhibition in vivo at 2 mg/kg in the assay with Rattus norvegicus [12] is 73%.

In the case of `O=C(NC[C@H]1CN(c2ccc(N3CCOCC3=O)cc2)C(=O)O1)c1ccc(Cl)s1` [RIVAROXABAN], the T/C in the assay filed under Oryctolagus cuniculus [1] turned out to be 2.03. For the same compound, the results for the Activity on Coagulation factor X [2] and in the assay with Rattus norvegicus [8] were 45.8% and 2.41 mg, respectively. Further, the inhibition in vivo at 1 mg/kg with Rattus norvegicus [7] is 75%.

In the case of `COc1ccc(-n2nc(C(N)=O)c3c2C(=O)N(c2ccc(N4CCCCC4=O)cc2)CC3)cc1` [APIXABAN], the Activity was 3.24 mg in the assay with Rattus norvegicus [6] and 3.33 mg in the assay on Rattus norvegicus [9]. Also, the inhibition in vivo at 1 mg/kg in the assay on Rattus norvegicus [7] was determined as 58%. For the same compound, in the assay with Rattus norvegicus [11], the inhibition in vivo at 0.5 mg/kg was determined as 66%.

`COc1ccc(-n2cc(C#N)c3ncn(-c4ccc(N5CCC[C@H]5C(N)=O)cc4)c(=O)c32)cc1`: the T/C in the assay listed under Oryctolagus cuniculus [1] is 1.67. In addition, the Activity on Coagulation factor X [2] was determined as 45.8%; in the assay on Rattus norvegicus [6] it was 3.65 mg. Moreover, it took 3.69 nM to reach half-maximal inhibition against Coagulation factor X [3] (IC50). For the same compound, the Ratio IC50 at Coagulation factor X [4] was found to be 4. In the assay with Rattus norvegicus [7], the inhibition in vivo at 1 mg/kg turned out to be 53%.

Regarding `COc1ccc(-n2cc(C#N)c3ncn(-c4ccc(N5CCOCC5=O)cc4)c(=O)c32)cc1`, in the assay listed under Oryctolagus cuniculus [1], the T/C came to 1.88. The Activity on Coagulation factor X [2] is 59.8%. Further, the outcome in the assay listed under Oryctolagus cuniculus [5] was Active.
